# Measurements from the NIST ThermoML archive (doi:10.1016/j.jct.2015.01.003).
# Numbers after ± are expanded uncertainties.
# Assay: excess molar enthalpy (molar enthalpy of mixing); xn = mol fraction of the nth substance listed
# Conditions: 100 kPa, Liquid, Flow calorimetry
smiles,measurement,setting,value
Cc1ccccc1 [toluene] + CCCO,excess molar enthalpy,"298.15 K, x1 = 0.0503",0.0239 ± 0.00263 kcal/mol
same,excess molar enthalpy,"298.15 K, x1 = 0.0998",0.0488 ± 0.00263 kcal/mol
same,excess molar enthalpy,"298.15 K, x1 = 0.1497",0.0731 ± 0.00263 kcal/mol
same,excess molar enthalpy,"298.15 K, x1 = 0.2",0.098 ± 0.00263 kcal/mol
same,excess molar enthalpy,"298.15 K, x1 = 0.2506",0.122 ± 0.00263 kcal/mol
same,excess molar enthalpy,"298.15 K, x1 = 0.2997",0.144 ± 0.00287 kcal/mol
same,excess molar enthalpy,"298.15 K, x1 = 0.3506",0.165 ± 0.00287 kcal/mol
same,excess molar enthalpy,"298.15 K, x1 = 0.3997",0.183 ± 0.00287 kcal/mol
same,excess molar enthalpy,"298.15 K, x1 = 0.4505",0.201 ± 0.00287 kcal/mol
same,excess molar enthalpy,"298.15 K, x1 = 0.5012",0.214 ± 0.00287 kcal/mol
same,excess molar enthalpy,"298.15 K, x1 = 0.5495",0.225 ± 0.00311 kcal/mol
same,excess molar enthalpy,"298.15 K, x1 = 0.5993",0.233 ± 0.00311 kcal/mol
same,excess molar enthalpy,"298.15 K, x1 = 0.651",0.238 ± 0.00311 kcal/mol
same,excess molar enthalpy,"298.15 K, x1 = 0.6997",0.238 ± 0.00311 kcal/mol
same,excess molar enthalpy,"298.15 K, x1 = 0.7501",0.234 ± 0.00311 kcal/mol
same,excess molar enthalpy,"298.15 K, x1 = 0.7996",0.223 ± 0.00311 kcal/mol
same,excess molar enthalpy,"298.15 K, x1 = 0.8506",0.205 ± 0.00311 kcal/mol
same,excess molar enthalpy,"298.15 K, x1 = 0.9008",0.176 ± 0.00311 kcal/mol
same,excess molar enthalpy,"298.15 K, x1 = 0.9496",0.126 ± 0.00311 kcal/mol
same,excess molar enthalpy,"313.15 K, x1 = 0.0503",0.0339 ± 0.00263 kcal/mol
same,excess molar enthalpy,"313.15 K, x1 = 0.0998",0.0681 ± 0.00263 kcal/mol
same,excess molar enthalpy,"313.15 K, x1 = 0.1497",0.0994 ± 0.00287 kcal/mol
same,excess molar enthalpy,"313.15 K, x1 = 0.2001",0.133 ± 0.00287 kcal/mol
same,excess molar enthalpy,"313.15 K, x1 = 0.2507",0.163 ± 0.00287 kcal/mol
same,excess molar enthalpy,"313.15 K, x1 = 0.2997",0.191 ± 0.00287 kcal/mol
same,excess molar enthalpy,"313.15 K, x1 = 0.3507",0.217 ± 0.00311 kcal/mol
same,excess molar enthalpy,"313.15 K, x1 = 0.3998",0.238 ± 0.00311 kcal/mol
same,excess molar enthalpy,"313.15 K, x1 = 0.4506",0.258 ± 0.00311 kcal/mol
same,excess molar enthalpy,"313.15 K, x1 = 0.5013",0.273 ± 0.00335 kcal/mol
same,excess molar enthalpy,"313.15 K, x1 = 0.5495",0.285 ± 0.00335 kcal/mol
same,excess molar enthalpy,"313.15 K, x1 = 0.5995",0.293 ± 0.00335 kcal/mol
same,excess molar enthalpy,"313.15 K, x1 = 0.651",0.297 ± 0.00335 kcal/mol
same,excess molar enthalpy,"313.15 K, x1 = 0.6998",0.296 ± 0.00335 kcal/mol
same,excess molar enthalpy,"313.15 K, x1 = 0.7501",0.288 ± 0.00335 kcal/mol
same,excess molar enthalpy,"313.15 K, x1 = 0.7996",0.273 ± 0.00335 kcal/mol
same,excess molar enthalpy,"313.15 K, x1 = 0.8507",0.248 ± 0.00335 kcal/mol
same,excess molar enthalpy,"313.15 K, x1 = 0.9007",0.21 ± 0.00335 kcal/mol
same,excess molar enthalpy,"313.15 K, x1 = 0.9496",0.143 ± 0.00335 kcal/mol
c1ccccc1 [benzene] + CCCO,excess molar enthalpy,"298.15 K, x1 = 0.0492",0.0253 ± 0.00263 kcal/mol
same,excess molar enthalpy,"298.15 K, x1 = 0.0993",0.0523 ± 0.00263 kcal/mol
same,excess molar enthalpy,"298.15 K, x1 = 0.1503",0.0798 ± 0.00263 kcal/mol
same,excess molar enthalpy,"298.15 K, x1 = 0.2006",0.106 ± 0.00263 kcal/mol
same,excess molar enthalpy,"298.15 K, x1 = 0.2499",0.132 ± 0.00287 kcal/mol
same,excess molar enthalpy,"298.15 K, x1 = 0.3001",0.156 ± 0.00287 kcal/mol
same,excess molar enthalpy,"298.15 K, x1 = 0.3493",0.178 ± 0.00287 kcal/mol
same,excess molar enthalpy,"298.15 K, x1 = 0.3994",0.198 ± 0.00287 kcal/mol
same,excess molar enthalpy,"298.15 K, x1 = 0.4505",0.217 ± 0.00311 kcal/mol
same,excess molar enthalpy,"298.15 K, x1 = 0.5004",0.231 ± 0.00311 kcal/mol
same,excess molar enthalpy,"298.15 K, x1 = 0.5491",0.243 ± 0.00311 kcal/mol
same,excess molar enthalpy,"298.15 K, x1 = 0.5987",0.251 ± 0.00311 kcal/mol
same,excess molar enthalpy,"298.15 K, x1 = 0.6492",0.256 ± 0.00311 kcal/mol
same,excess molar enthalpy,"298.15 K, x1 = 0.7006",0.255 ± 0.00311 kcal/mol
same,excess molar enthalpy,"298.15 K, x1 = 0.7507",0.249 ± 0.00311 kcal/mol
same,excess molar enthalpy,"298.15 K, x1 = 0.7994",0.237 ± 0.00311 kcal/mol
same,excess molar enthalpy,"298.15 K, x1 = 0.8489",0.217 ± 0.00311 kcal/mol
same,excess molar enthalpy,"298.15 K, x1 = 0.8992",0.184 ± 0.00311 kcal/mol
same,excess molar enthalpy,"298.15 K, x1 = 0.9504",0.128 ± 0.00311 kcal/mol
same,excess molar enthalpy,"313.15 K, x1 = 0.0493",0.0325 ± 0.00263 kcal/mol
same,excess molar enthalpy,"313.15 K, x1 = 0.0995",0.0662 ± 0.00263 kcal/mol
same,excess molar enthalpy,"313.15 K, x1 = 0.1506",0.1 ± 0.00287 kcal/mol
same,excess molar enthalpy,"313.15 K, x1 = 0.2009",0.133 ± 0.00287 kcal/mol
same,excess molar enthalpy,"313.15 K, x1 = 0.2503",0.162 ± 0.00287 kcal/mol
same,excess molar enthalpy,"313.15 K, x1 = 0.3005",0.191 ± 0.00287 kcal/mol
same,excess molar enthalpy,"313.15 K, x1 = 0.3498",0.217 ± 0.00311 kcal/mol
same,excess molar enthalpy,"313.15 K, x1 = 0.3999",0.24 ± 0.00311 kcal/mol
same,excess molar enthalpy,"313.15 K, x1 = 0.451",0.262 ± 0.00311 kcal/mol
same,excess molar enthalpy,"313.15 K, x1 = 0.5009",0.278 ± 0.00335 kcal/mol
same,excess molar enthalpy,"313.15 K, x1 = 0.5497",0.291 ± 0.00335 kcal/mol
same,excess molar enthalpy,"313.15 K, x1 = 0.5993",0.299 ± 0.00335 kcal/mol
same,excess molar enthalpy,"313.15 K, x1 = 0.6497",0.303 ± 0.00335 kcal/mol
same,excess molar enthalpy,"313.15 K, x1 = 0.701",0.3 ± 0.00335 kcal/mol
same,excess molar enthalpy,"313.15 K, x1 = 0.7511",0.291 ± 0.00335 kcal/mol
same,excess molar enthalpy,"313.15 K, x1 = 0.7997",0.276 ± 0.00335 kcal/mol
same,excess molar enthalpy,"313.15 K, x1 = 0.8491",0.25 ± 0.00335 kcal/mol
same,excess molar enthalpy,"313.15 K, x1 = 0.8994",0.209 ± 0.00335 kcal/mol
same,excess molar enthalpy,"313.15 K, x1 = 0.9505",0.14 ± 0.00335 kcal/mol
